Data set [1] relates to L. amazonensis axenic amastigotes. Briefly: Axenic amastigotes assay (resazurin). It is filed as cell-based. As to conditions: Leishmania amazonensis, 72 h of culture, table title says 48 h. As to the method:
Promastigote forms of L. amazonensis (MHOM/BR/77/LTB0016) were grown to a stationary phase, washed once in phosphate buffer solution (PBS) (pH = 7.4) and adjusted to 5 × 10^6 parasites/mL in Schneider’s medium, supplemented with 20% fetal bovine solution (FBS) pH = 5.5 and maintained at 305K. After 5 days of cultivation, the rounded forms without free flagella were obtained and, after heat shock, were used in the appropriate assays. To evaluate the activity against axenic amastigotes, the parasites were incubated with increasing concentrations of the prototypes (diluted in DMSO) for 72 h at 305K. These assays were performed in triplicate in 96-well flat bottom plates (Falcon Co, Franklin Lakes, USA). The leishmanicidal activity was evaluated by adding 22 μl of resazurin to each well. After 4 h, the cell viability was measured as described above. Calculation of the IC50 values was determined in relation to the control by a sigmoidal model using GraphPad Prism 6.0 software.
A general note: Resazurin is reduced to fluorescent resorufin, in cell work by metabolically active cells.

For data set [2] the following is noted: constant of substituent 4-X; cited from earlier work.
Data set [3] deals with T1, human serum albumin (HSA) (Homo sapiens, UniProt P02768).
T1 construct: purchased Sigma Aldrich, St. Louis, MO, USA
The data set is described as follows: HSA time-resolved fluorescence decays. The note with it: 5e 2.78 × 10^−5 M, HSA 1.00 × 10^−5 M, room temperature. It is filed as binding. As to the method: The fluorimeter model FL920 CD from Edinburgh Instruments (Edinburgh, UK), equipped with an electrically pumped laser (EPL, with λexc = 280 ± 10 nm; a pulse of 850 ps with the energy of […]; monitoring emission at 340 nm) was used for time-resolved fluorescence decays measurement. The experiment was conducted for a 3.0 mL HSA solution (1.00 × 10^−5 M, in PBS) without and in the presence of 5e (2.78 × 10^−5 M) at room temperature.

Data set [4] relates to L. amazonensis promastigotes. Briefly: Promastigote assay (MTT). As to conditions: Leishmania amazonensis, after 48 h of culture (table title). Type of data set: cell-based, Leishmania amazonensis. As for the experimental part:
Leishmania amazonensis (MHOM/BR/77/LTB0016) were regularly isolated from infected mice and maintained in culture as promastigotes through weekly passages in Schneider’s medium (Sigma Aldrich, St. Louis, MO, USA) supplemented with 10% (v/v) heat-inactivated fetal calf serum, penicillin (100 UI/mL), and streptomycin (100 µg/mL) at 299K. Parasites were maintained until the 10th passage. The Animal Ethics Committee of the Oswaldo Cruz Foundation (license number L026/2015) approved this study.
Promastigotes of L. amazonensis (1 × 10^6 promastigotes/mL) in the 4th day on culture in the conditions described above were incubated with the chalcones serially diluted in culture medium (0.032% v/v DMSO at the highest concentration tested) on a 96-well cell culture plate (TPP™ test plate, Switzerland). The assayed concentrations ranged from 50 to 1.56 µM for all chalcone-thiosemicarbazones (5a–g) and for pentamidine (Sigma Aldrich, St. Louis, MO, USA). […] All compounds were analyzed in at least three experiments performed in triplicate. Pentamidine was used as the reference drug and diluted in the same concentrations used for 5a–g. The vehicle (DMSO) had no effect on the parasites.
The antileishmanial activity was evaluated by adding 22 µL of 3-(4,5-dimethylthiazol-2-yl)-2-5diphenyltetrazolium bromide (MTT) at 5 mg/mL (Sigma Aldrich, St. Louis, MO, USA) to each well. After 2 h, 80 µL of DMSO was added and the optical density was determined at a wavelength of 570 nm in a microplate reader (µQuant Bio-Tek Instruments®, Winooski). The assays were carried out in triplicate in 96-well plates (Costar, New York, USA). The inhibition percentage was estimated by the comparison with the non-treated control. The values for the inhibitory concentration for 50% of the promastigotes (IC50) were calculated by a sigmoidal model.

Data set [5] deals with T1, human serum albumin (HSA). The data set is described as follows: HSA circular dichroism (α-helix content). It is filed as binding. As to conditions: 310K, 5e 2.78 × 10^−5 M. As to the method: Circular dichroism (CD) spectra were measured in the same equipment used in the steady-state fluorescence analysis, using 200–250 nm range at 310K (human body temperature). The experiment was conducted for a 3.0 mL HSA solution (1.00 × 10^−6 M, in PBS) in the absence and presence of 5e (2.78 × 10^−5 M). Each spectrum obtained was the average of three scans. The intensity of the signal from the CD spectra was expressed as mean residue ellipticity (MRE), defined according to Equation (7):(7) MRE=θ/10×n×l×Cp where θ, n, l and Cp are the observed CD (in millidegrees), number of amino acid residues (585 for HSA), optical pathlength of the cell (1.00 cm) and molar concentration of HSA (1.00 × 10^−6 M), respectively.
In order to calculate quantitative information on the percentage of changes in the α-helix content upon 5e binding, the resulting MRE at 208 and 222 nm (far-UV region) were analyzed according to Equations (8A) and (8B):(8A) α−helix%=(−MRE208−4000)/(33000−4000)×100 (8B) α−helix%=(−MRE222−2340)/30300×100
Background: CD spectra are sensitive to the conformation of chiral molecules.

The term IC50 denotes the concentration needed to halve the response being measured.

T1 sequence (P02768 25-609): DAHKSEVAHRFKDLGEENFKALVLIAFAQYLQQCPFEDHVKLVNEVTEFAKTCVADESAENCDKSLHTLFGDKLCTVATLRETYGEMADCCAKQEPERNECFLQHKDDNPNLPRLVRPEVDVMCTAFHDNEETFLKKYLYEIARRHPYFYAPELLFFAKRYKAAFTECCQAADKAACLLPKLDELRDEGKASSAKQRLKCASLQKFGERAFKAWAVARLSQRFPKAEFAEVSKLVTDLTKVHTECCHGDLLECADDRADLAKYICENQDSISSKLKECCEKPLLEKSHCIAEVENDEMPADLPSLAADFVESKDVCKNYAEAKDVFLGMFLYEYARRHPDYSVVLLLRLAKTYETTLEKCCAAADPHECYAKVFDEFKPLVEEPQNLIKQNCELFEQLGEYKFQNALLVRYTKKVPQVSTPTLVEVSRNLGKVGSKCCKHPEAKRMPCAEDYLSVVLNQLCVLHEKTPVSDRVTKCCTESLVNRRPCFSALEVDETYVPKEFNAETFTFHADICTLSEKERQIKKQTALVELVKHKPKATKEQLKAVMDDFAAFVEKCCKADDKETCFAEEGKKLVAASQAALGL

Compound `NC(=S)N/N=C(\C=C\c1ccc(Cl)cc1)c1ccccc1` [Compound 5e, (1E,2E)-3-(4′-chlorophenyl)-1-phenylprop-2-en-1-one thiosemicarbazone] came in with a 50% inhibitory concentration (IC50) in data set [1] of 3.19 ± 1.2 µM. Also, in data set [2], the “Hammett constant σp” value is 0.34, the “Hansh constant π (lipophilicity)” value is given as 0.71, the “Taft constant Es” value is reported as −0.97 and the “molecular refractivity MR” value is listed as 0.60. Also, in data set [3], the “HSA fluorescence lifetime τ1 in the presence of ligand” value is reported as 1.77 ± 0.12 ns and the “HSA fluorescence lifetime τ2 in the presence of ligand” value was found to be 5.91 ± 0.16 ns. In data set [4], this compound came in with a 50% inhibitory concentration (IC50) of 5.22 ± 0.75 µM. In addition, the “α-helix content of HSA:5e at 222 nm” value in data set [5] (HSA alone 53.5%) is 52.2%. The “α-helix content of HSA:5e at 208 nm” value in data set [5] (HSA alone 57.1%) came out at 55.2%.
